Experimental data as given in US8741859B2, “Fungicide composition for agriculture and horticulture and method for preventing plant diseases” (Ishihara Sangyo Kaisha, Ltd, priority 2008, dated 2014).

Experiments:
Pythium spinosum = assay: Inhibition test of mycelial growth against rice seedling blight (Pythium spinosum); type: cell-based; conditions: Globisporangium spinosum, 48 h, PDA plate, 2 days, 20° C., read-out: Inhibition Rate of Mycelial Growth against Pythium spinosum (%)
Method: Inhibition Test of Mycelial Growth Against Rice Seedling Blight (Pythium spinosum)
(§1) The strain to use for a test was precultured on a PSA plate for two days at 20° C. Then, the peripheral portion of the grown mycelia was cut out with a cork borer (4 mm in diameter) to put on PDA plate which was prepared to contain an active ingredient at a predetermined concentration by diluting. After culturing for two days at 20° C., a diameter of the mycelial colony was measured to obtain an inhibition rate of mycelial growth.
(§2) In addition, a theoretical value of the inhibition rate was calculated using Colby's formula and listed in parentheses of Table 1.

Pythium graminicola = assay: Inhibition test of mycelial growth against turf Pythium blight (Pythium graminicola); type: cell-based
Method: as §1, §2
Inhibition Test of Mycelial Growth Against Turf Pythium Blight (Pythium graminicola)
The inhibition rate of mycelial growth was obtained by measuring mycelial growth in the same manner as Test Example 1. In addition, the mean mycelial growth of non-treated group was 46.5 mm.

In the case of `Cc1ccc(-c2c(Cl)nc(C#N)n2S(=O)(=O)N(C)C)cc1` [Cyazofamid, 4-chloro-2-cyano-1-dimethylsulfamoyl-5-(4-methylphenyl)imidazole], the inhibition at 1 ppm (Pythium spinosum; Cyazofamid 1.0 ppm alone (polyoxin 0 ppm)) is reported as 68%, the inhibition at 10 ppm (Pythium spinosum; Cyazofamid 10.0 ppm alone (polyoxin 0 ppm)) is reported as 54% and the “Inhibition Rate of Mycelial Growth (%)” value (Pythium graminicola; Cyazofamid 1 ppm alone (agent 0 ppm)) is reported as 48%. For the same molecule, the “Inhibition Rate of Mycelial Growth (%)” value (Pythium graminicola; Cyazofamid 10 ppm alone (agent 0 ppm)) was 47% and the “Inhibition Rate of Mycelial Growth (%)” value (Pythium graminicola; Cyazofamid 100 ppm alone (agent 0 ppm)) was 68%.
